The text below walks through data of patent US20210300943A1, “OGA INHIBITOR COMPOUNDS” (Janssen Pharmaceutica NV, priority 2018, published 2021).

A word on the Emax: it is the maximal effect, on the per cent scale that the assay sets.

For the assay, the target named is T1, recombinant human Meningioma Expressed Antigen 5 (MGEA5), also referred to as O-GlcNAcase (OGA) (Homo sapiens, UniProt O60502).
T1 construct: Full length OGA enzyme was purchased at OnGene (cat #TP322411); purchased OnGene (so in the source)
T1 sequence (O60502 1-916): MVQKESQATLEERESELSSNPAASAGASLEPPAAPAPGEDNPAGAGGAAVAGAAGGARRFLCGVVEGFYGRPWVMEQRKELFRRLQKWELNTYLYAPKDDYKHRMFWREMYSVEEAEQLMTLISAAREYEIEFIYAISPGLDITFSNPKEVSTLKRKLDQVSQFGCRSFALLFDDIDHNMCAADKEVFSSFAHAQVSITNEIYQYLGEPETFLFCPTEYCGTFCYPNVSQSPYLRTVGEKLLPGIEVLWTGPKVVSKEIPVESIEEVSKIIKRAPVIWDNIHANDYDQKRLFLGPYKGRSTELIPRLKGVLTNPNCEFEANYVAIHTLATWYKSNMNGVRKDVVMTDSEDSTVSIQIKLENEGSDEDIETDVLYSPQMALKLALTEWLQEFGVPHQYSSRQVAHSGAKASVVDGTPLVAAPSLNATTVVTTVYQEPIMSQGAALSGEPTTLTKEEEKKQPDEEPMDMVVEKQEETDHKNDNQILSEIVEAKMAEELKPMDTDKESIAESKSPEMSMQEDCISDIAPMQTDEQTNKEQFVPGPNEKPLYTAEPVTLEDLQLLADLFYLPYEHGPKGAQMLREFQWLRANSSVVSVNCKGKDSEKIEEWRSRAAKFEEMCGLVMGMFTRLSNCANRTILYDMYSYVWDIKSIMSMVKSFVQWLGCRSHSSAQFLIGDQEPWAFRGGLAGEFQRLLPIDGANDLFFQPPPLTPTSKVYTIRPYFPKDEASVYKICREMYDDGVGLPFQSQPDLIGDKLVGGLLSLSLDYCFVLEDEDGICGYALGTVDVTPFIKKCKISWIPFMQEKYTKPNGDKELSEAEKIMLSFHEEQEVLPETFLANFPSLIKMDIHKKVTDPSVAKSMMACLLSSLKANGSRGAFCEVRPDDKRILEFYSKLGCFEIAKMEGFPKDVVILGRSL
In words: OGA biochemical assay (inhibition of FM-GlcNAc hydrolysis, fluorescence). Conditions: for Emax: maximal effect, read-out: Enzymatic Emax (%); for IC50: read-out: Enzymatic hOGA, pIC50 (converted). The method, boiled down: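 Full-length recombinant OGA (2 nM) pre-incubated with compound 60 min at room temperature, then FM-GlcNAc (100 µM final) added in citrate/phosphate buffer pH 7.2 with 0.005% Tween-20. After 6 h at room temperature, stopped with carbonate pH 11.0; fluorescein read at 485/538 nm; IC50 and Hill coefficient from curve fit.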

As for `Cc1cc(OC[C@H]2CCCN(C(C)c3nc4c(cc3F)OCCO4)C2)cc(C)n1` (single isomer, unassigned) [Product 155], the Emax came out at 99% and the IC50 is 1.26 nM.
With `Cc1cc([C@H]2CCCN(C(C)c3cnc4c(c3)OCCN4)C2)cc(C)n1` (single isomer, unassigned) [Product 135], the Emax came to 101% and the IC50 is 7.94 nM.
